Reference: US11081236B2, “Diagnostic and therapeutic methods for the treatment of breast cancer” (GENENTECH, INC., priority 2018, dated 2021)

Tested on: panel of 14 ER+/HER2− breast cancer cell lines
Test: 8-day in vitro viability assay, GR (Growth Rate) method
Type: cell-based
Conditions: 300 nM
Method: The relationship between ER pathway activity and the anti-proliferative effect of the ER antagonist fulvestrant was explored in a panel of 14 ER+/HER2− breast cancer cell lines. RNA-sequencing data was leveraged to determine the E2-induced score, determined by expression of a set of E2-induced genes (as described above), of a series of ER+/HER2− breast cancer cell lines grown under standard culture conditions, in the presence of estrogen. The effect of ER inhibition by 300 nM fulvestrant on cellular proliferation was determined in an 8-day in vitro viability assay using the GR (Growth Rate) method described by Hafner et al. (Nat Methods 13:6, 2016). The E2-induced score was then plotted against the effect of fulvestrant on cellular growth rate.

C[C@]12CC[C@@H]3c4ccc(O)cc4C[C@@H](CCCCCCCCC[S+]([O-])CCCC(F)(F)C(F)(F)F)[C@H]3[C@@H]1CC[C@@H]2O (some centres unmarked) [Fulvestrant, fulvestrant]
impact on growth rate (cell lines exhibiting higher E2-induced scores): considerably greater impact
impact on growth rate (cell lines with E2-induced scores in the lowest 25th percentile (ZR-75-1, MDA-MB-415, MDA-MB-175-VII, KPL-1)): little impact
